Assay [1] concerns panel of cancer cell lines. Briefly: SRB assay, panel of cancer cell lines and normal fibroblast line. The assay is classed as cell-based, human. Conditions: 96 h exposure; for IC50: Homo sapiens, Fibroblast, read-out: IC50 values across the cell line panel. As to the method:
(§1) Human cancer cell lines, MCF7 (breast), A549 (lung), Mia-PaCa2, PANC1 and HPAC (pancreatic), RCC4 and 786-0 renal, and the somatic human cell line WI-38 (lung fibroblast) were purchased from ATCC. Cell lines were maintained in appropriate medium supplemented with 10% foetal bovine serum (Invitrogen, UK), 2 mM L-glutamine (Invitrogen, Netherlands), and other components as specified by the suppliers. Cell lines were maintained at 37° C., 5% CO2 and routinely passaged. Drugs were dissolved in DMSO and filtered through 0.22 μm pore-size filter units before addition to cell line appropriate media. Cellular growth inhibition was measured using the sulforhodamine B (SRB) assay in 96 well plates as described previously.^1,2 Fifty percent inhibitory concentrations (IC50) were determined by taking the mean absorbance at 540 nm for each drug concentration expressed as a percentage of the absorbance of untreated control wells.
(§2) The anti-proliferative activity of the group of nine ND derivatives was assessed using the SRB assay following 96 h exposure to 2-fold serial dilutions of each compound (Table 2) in a panel of cancer cell lines together with a normal fibroblast line. […] In contrast the morpholine compounds all show sub-μM anti-proliferative activity in at least some of the cancer cell lines used and the two compounds 3d, 3h with n=3 —(CH2)n— linkers to the morpholine groups, show particularly potent activity in the Mia-PaCa2 and PANC1 pancreatic carcinoma and A549 lung adenocarcinoma cell lines (IC50 values of 10-20 nM).

Assay [2] concerns human telomeric G-quadruplex DNA (F21T). Description: FRET melting assay, human telomeric quadruplex. The class given is binding. Conditions: for telomeric quadruplex stabilization (in words): FRET melting. From the text:
(§3) The ability of the naphthalene diimide compounds to stabilize DNA sequences was investigated using a fluorescence resonance energy transfer (FRET) assay modified to be used as a high-throughput screen in a 96-well format. Several quadruplex sequences were studied (the human telomeric G-quadruplex DNA sequence 5′-FAM-d(GGG[TTAGGG]3)-TAMRA-3′ and the duplex sequence 5′-FAM-dTATAGCTATA-HEG-TATAGCTATA-TAMRA-3′ (HEG linker: [(—CH2—CH2—O—)6])), as well as two overlapping sequences from the HSP90 promoter region (HSP90a and HSP90b):
(§4) The labelled oligonucleotides have attached to them the donor fluorophore FAM: 6-carboxyfluorescein and the acceptor fluorophore TAMRA: 6-carboxytetramethylrhodamine. The FRET probe sequences were diluted from stock to the correct concentration (400 nM) in a 60 mM potassium cacodylate buffer (pH 7.4) and then annealed by heating to 85° C. for 10 min, followed by cooling to room temperature in the heating block. The compound was stored as a 10 mM stock solution in DMSO; final solutions (at 2×concentration) were prepared using 10 mM HCl in the initial 1:10 dilution, after which 60 mM potassium cacodylate buffer (pH 7.4) was used in all subsequent steps. The maximum HCl concentration in the reaction volume (at a ligand concentration of 20 μM) is thus 200 μM, well within the range of the buffer used. Relevant controls were also performed to check for interference with the assay. 96-Well plates (MJ Research, Waltham, Mass.) were prepared by aliquoting 50 μl of the annealed DNA into each well, followed by 50 μl of the compound solutions. Measurements were made on a DNA Engine Opticon (MJ Research) with excitation at 450-495 nm and detection at 515-545 nm. Fluorescence readings were taken at intervals of 0.5° C. in the range 30-100° C., with a constant temperature being maintained for 30 s prior to each reading to ensure a stable value. Final analysis of the data was carried out using a script written in the program Origin 7.0 (OriginLab Corp., Northampton, Mass.). The advanced curve-fitting function in Origin 7.0 was used for calculation of ΔTm values. All determinations were performed in triplicate or better. Esds in ΔTm are ±0.1° C.
The ability of compounds 3a-h to stabilize a human telomeric quadruplex was assessed by a high-throughput FRET (Fluorescence Resonance Energy Transfer) melting technique. […] None of the furan tetrahydrofuran, pyranose or acyclic ether compounds has any effect on quadruplex or duplex stability.
(§5) The T-loop sequence represents duplex DNA.

The next assay concerns 786-O (renal) cells. Briefly: SRB growth inhibition assay, 96 hr exposure, 786-O. The class given is cell-based, human. As to the method: as §1, §2
(§6) Next a series of structural isomers were tested.

In another assay the test system is Mia-PaCa2 cells. Description: Senescence β-galactosidase staining. The assay is classed as cell-based, human. Conditions: 7 days treatment. The method, then:
FIG. 4. Micrographs showing the results of staining for evidence of cellular senescence in MiaPaCa2 cells using the β-galactosidase assay. Senescent cells are coloured blue in this procedure. Staining was performed after seven days treatments with (a) vehicle control, ×100 magnification, (b) 3.3 nM of compound 3d, ×200 magnification, (c) 6.6 nM of compound 3d, ×200 magnification, (d) 50 nM of compound 4, ×200 magnification, (e) plot of the percentage of senescent cells at the indicated concentrations of compounds 3d and 4, compared to the background senescence in this cell line (with vehicle control only). Cell counts were performed in triplicate and error bars represent estimated standard deviations.
Senescence detection and quantification experiments were carried out using the Senescence β-galactosidase staining kit (Cell Signalling Technology, MA, USA) according to the manufacturer's protocol. Briefly, 1×10^5 cells were seeded in 6-well plates in 2 ml of medium supplemented with the test compound and incubated for 24 h. Cells were washed (2 ml PBS), fixed (2% formaldehyde and 2% glutaraldehyde in PBS, 15 min, room temperature) and washed (2×2 ml PBS) before staining overnight. Senescent cells, detected by their blue pigmentation, were counted using a light microscope.
CDKN1A encodes the cyclin-dependent kinase p21WAF1 that induces replicative senescence, which is a well-studied consequence of telomerase inhibition and telomere maintenance disruption. […] Compounds 3b and 3d behaved in a similar manner to each other, with concentrations of 3-4 nM being sufficient to result in ˜50-60% of cells becoming senescent after this time-course.

Assay [3] relates to HSP90b promoter quadruplex sequence. Briefly: FRET melting assay, Hsp90B quadruplex. The class given is binding.
Description: as §3
as §4, with “±0.1° C. […]” for “±0.1° C.”

The subject of assay [4] is MiaPaCa2 (pancreatic) cells. Briefly: SRB growth inhibition assay, MiaPaCa2. The class given is cell-based, human. The following applies: SRB assay, 96 hr exposure. As to the method: as §1, §2
Dose-response curves were used to guide the choice of compound concentration and time-points for the array experiments (FIG. 2a). […] To explore this response continuum the transcriptional signature of cells exposed for 24 h to 20 nM, 40 nM, 80 nM concentrations of 3d, or solvent alone as control, was analysed as described in Materials and Methods.
as §6

For assay [5], the system named is HSP90a promoter quadruplex sequence. Briefly: FRET melting assay, Hsp90A quadruplex. The class given is binding.
Description: as §3
as §4, with “±0.1° C. […]” for “±0.1° C.”

A further assay relates to A549 (lung) cells. Description: SRB growth inhibition assay, 96 hr exposure, A549. The class given is cell-based, human. Conditions: 96 hr exposure. The method, then:
as §1, §2, §6

The next assay has as its system duplex DNA (T-loop). Description: FRET melting assay, duplex DNA. The assay is classed as binding.
Description: as §3, §4, §5

A further assay concerns Panc1 (pancreatic) cells. Description: SRB growth inhibition assay, 96 hr exposure, Panc1. The assay is classed as cell-based, human. Conditions: 96 hr exposure. The method, then: as §1, §2, §6
A further assay relates to MCF-7 (breast) cells. Briefly: SRB growth inhibition assay, 96 hr exposure, MCF-7. The class given is cell-based, human. The method, then:
as §1, §2, §6

Assay [6] relates to WI38 normal human fibroblast cells. Briefly: SRB growth inhibition assay, 96 hr exposure, WI38. The class given is cell-based. As to the method: as §1
as §2, with “nM). […]” for “nM).”

For another assay, the system named is RCC4 (renal) cells. Description: SRB growth inhibition assay, 96 hr exposure, RCC4. The class given is cell-based, human. The method, then:
as §1, §2, §6

Entries after “also recorded” stand apart in the source; their conditions may differ.

As for `CN1CCN(CCCNc2cc3c4c(c(NCCCN5CCN(C)CC5)cc5c4c2C(=O)N(CC2CCCO2)C5=O)C(=O)N(CC2CCCO2)C3=O)CC1` (racemic) [Compound 3a, 4,9-bis((3-(4-methylpiperazin-1-yl)propyl)amino)-2,7-bis((tetrahydrofuran-2-yl)methyl)benzo[lmn][3,8]phenanthroline-1,3,6,8(2H,7H)-tetraone], the “anti-proliferative activity (in words)” value in assay [1] was “devoid of significant anti-proliferative activity in all except the Mia-PaCa2 and A549 lines”.

For the compound `CN1CCN(CCCNc2cc3c4c(c(NCCCN5CCN(C)CC5)cc5c4c2C(=O)N(Cc2ccco2)C5=O)C(=O)N(Cc2ccco2)C3=O)CC1` [Compound 3b, 2,7-bis(furan-2-ylmethyl)-4,9-bis((3-(4-methylpiperazin-1-yl)propyl)amino)benzo[lmn][3,8]phenanthroline-1,3,6,8(2H,7H)-tetraone], the IC50 in [1] was in the range of 1000 to 8000 nM. Moreover, the “telomeric quadruplex stabilization (in words)” value in [2] is “low level of quadruplex binding”.

For `CN1CCN(CCCNc2cc3c4c(c(NCCCN5CCN(C)CC5)cc5c4c2C(=O)N(CC2CCOCC2)C5=O)C(=O)N(CC2CCOCC2)C3=O)CC1` [Compound 3c, 4,9-bis((3-(4-methylpiperazin-1-yl)propyl)amino)-2,7-bis((tetrahydro-2H-pyran-4-yl)methyl)benzo[lmn][3,8]phenanthroline-1,3,6,8(2H,7H)-tetraone], the “selectivity for the renal carcinoma cell line 786-0” value with 786-O (renal) cells (versus other lines of the panel) is “up to 10 fold”. Moreover, the IC50 in [1] is 1000 to 8000 nM. In assay [2], the “telomeric quadruplex stabilization (in words)” value is “low level of quadruplex binding”.

Turning to `COCCCN1C(=O)c2cc(NCCCN3CCN(C)CC3)c3c4c(cc(NCCCN5CCN(C)CC5)c(c24)C1=O)C(=O)N(CCCOC)C3=O` [Compound 3e, 2,7-bis(3-methoxypropyl)-4,9-bis((3-(4-methylpiperazin-1-yl)propyl)amino)benzo[lmn][3,8]phenanthroline-1,3,6,8(2H,7H)-tetraone], the IC50 in assay [1] fell in the range of 1000 to 8000 nM. Besides, the “telomeric quadruplex stabilization (in words)” value in [2] is “very slight effect; also recorded: low level of quadruplex binding”.

For `CN1CCN(CCCNc2cc3c4c(c(NCCCN5CCN(C)CC5)cc5c4c2C(=O)N(CCCN2CCN(C)CC2)C5=O)C(=O)N(CCCN2CCN(C)CC2)C3=O)CC1` [Compound 4, reference compound], the “induction of senescence (in words)” value with Mia-PaCa2 cells is recorded as “strong induction of senescence”.

Turning to `CN1CCN(CCCN2C(=O)c3cc(NCC4CCOCC4)c4c5c(cc(NCC6CCOCC6)c(c35)C2=O)C(=O)N(CCCN2CCN(C)CC2)C4=O)CC1` [SKM052], in assay [3] (1 uM ligand), the “change in melting temperature Hsp90B 1 uM” value amounted to 3. For the same compound, in assay [3] (2 uM ligand), the “change in melting temperature Hsp90B 2 uM” value is given as 23. Further, the IC50 in the assay with 786-O (renal) cells (SRB assay, 96 hr exposure) was found to be 290 ± 2 nM; in assay [4] it was 137 ± 31 nM; with A549 (lung) cells it was 460 ± 10 nM; in the assay on Panc1 (pancreatic) cells it was 1100 ± 130 nM; in the assay on MCF-7 (breast) cells, 510 ± 17 nM; in [6], 2800 ± 230 nM. Further, inhibition in the assay on RCC4 (renal) cells was half-maximal at 2200 ± 15 nM (IC50). Besides, the “change in melting temperature Hsp90A 1 uM” value in [5] (1 uM ligand) came to 2. In assay [5] (2 uM ligand), the “change in melting temperature Hsp90A 2 uM” value amounted to 27. Besides, the “change in melting temperature Tloop 1 uM” value in the assay with duplex DNA (T-loop) (1 uM ligand) worked out at 0. In the assay on duplex DNA (T-loop) (2 uM ligand), the “change in melting temperature Tloop 2 uM” value came to 0. For the same compound, the “change in melting temperature F21T 1 uM” value in [2] (1 uM ligand) was less than 2. The “change in melting temperature F21T 2 uM” value in [2] (2 uM ligand) was 22.

These data come from patent US9493460B2, “Diimide compounds” (UCL BUSINESS PLC, priority 2013, dated 2016).
